Source: patent US20260061056A1, “RINSE SOLUTION FOR A PHOTODYNAMIC DISINFECTION” (MANA HEALTH TECHNOLOGIES GMBH, priority 2022, published 2026)

Experiments:
Streptococcus mutans = assay: photodynamic effect of rinsing solution against S. mutans bacterial suspension, photosensitiser concentration series (FIG. 2); format: cell-based; conditions: irradiation 300 s; for microorganism content after irradiation: 17-21 J/cm^2
Text: The corresponding comparative value was approx. 3.2·10^7 CFU/ml. The other bars of the graph each show the reduction in the microorganism content when using the (here: single) photosensitiser at different concentrations, including such concentrations that differ from the disclosed subject matter, in the rinsing solution after effective irradiation for 300 s with between 10 and 45 J/cm^2, in the present case between 17 and 21 J/cm^2.
As the other bars R50, R125 and R250 show, the microorganism content increases again with increasing photosensitiser concentration of 0.5 wt. % (R50), 1.25 wt. % (R125) and 2.5 wt. % (R250), i.e. to approx. 1.6·10^5 CFU/ml, approx. 1.1·10^6 CFU/ml and approx. 2.9·10^6 CFU/ml, respectively. This means that despite the higher concentration of the photosensitiser and the higher number of free radicals to be expected as a result, the efficacy of the disinfection is reduced.

[1] = absorption spectrum of the photosensitiser (FIG. 1); format: physicochemical; conditions: absorption spectrum A of the photosensitiser in rinsing solution
Text: The absorption spectrum A of the photosensitiser used here (dotted line in FIG. 1) has a maximum at a wavelength A of around 445 nm. To activate the photosensitiser, irradiation in the range of this wavelength—or optionally, as in the present example, with a broadband radiation source that also encompasses this range—is therefore effective. […] If more than one photosensitiser is used, this generally results in several absorption maxima to which the radiation source or its radiation spectrum must be adapted.

## Cc1cc2nc3c(=O)[nH]c(=O)nc-3n(C[C@H](O)[C@H](O)[C@H](O)COP(=O)([O-])O)c2cc1C.[Na+] [riboflavin 5′-phosphate sodium, Riboflavin 5′-phosphate sodium]
Streptococcus mutans; 0.01 wt. % photosensitiser in rinsing solution (bar R01), growth control approx. 3.2·10^7 CFU/ml
  microorganism content after irradiation: approx. 2.1·10^6 CFU/ml
Streptococcus mutans; 0.01 wt. % photosensitiser
  reduction of microorganism content versus growth control: more than an order of magnitude
Streptococcus mutans; 0.25 wt. % photosensitiser in rinsing solution (bar R25)
  microorganism content after irradiation: approx. 2.0·10^4 CFU/ml
Streptococcus mutans; 0.25 wt. % photosensitiser
  microorganism content as fraction of the comparative value: less than 1/1000
  reduction of microorganism content versus growth control: more than 3 orders of magnitude
Streptococcus mutans; 0.5 wt. % photosensitiser (bar R50)
  microorganism content after irradiation: approx. 1.6·10^5 CFU/ml
Streptococcus mutans; 1.25 wt. % photosensitiser (bar R125)
  microorganism content after irradiation: approx. 1.1·10^6 CFU/ml
Streptococcus mutans; 2.5 wt. % photosensitiser (bar R250)
  microorganism content after irradiation: approx. 2.9·10^6 CFU/ml
[1]
  absorption maximum wavelength: around 445 nm
